Measured values as given in patent US10508127B2, “Conjugated bisphosphonates for the diagnosis and therapy of bone diseases” (SCV GmbH, priority 2014, dated 2019).
Marks after values point to notes of the source that are not given here.

Tests used:
[1] = Ex vivo biodistribution (organ SUV) in healthy Wistar rats 60 min after tail vein injection; conditions: for Bone-to-organ ratio Blood / Bone-to-organ ratio Heart / Bone-to-organ ratio Intestine / Bone-to-organ ratio Kidneys / Bone-to-organ ratio Liver / Bone-to-organ ratio Lung / Bone-to-organ ratio Muscle / Bone-to-organ ratio Spleen: Wistar rats after 60 min; for SUV Blood / SUV Femur / SUV Heart / SUV Intestine / SUV Kidneys / SUV Liver / SUV Lung / SUV Muscle / SUV Spleen: Wistar rats, ex vivo, 60 min after injection, SUV (standard deviation) from five animals
Protocol: Under isoflurane anesthesia, 15-18 MBq of the ^68Ga-marked compound or of the ^177Lu-marked compounds, diluted in isotonic saline solution, was applied into the tail vein of healthy Wistar rats (N=5) having a weight between 140 and 220 g. The rats were killed 60 min after injection, organ samples were removed and weighed, and the accumulation of the marked bisphosphonate in the tissue was determined in SUV (standardized uptake value) according to the formula: SUV=(activity per g of tissue)/(injected activity) x body weight.

[2] = In vivo μPET experiments, pharmacological parameters (2-Compartment Model); conditions: Wistar rats
[3] = system: bone metastases; test: PET/CT uptake (SUV max) in a patient with prostate carcinoma and bone metastases; format: in vivo; conditions: same patient; DOTA^ZOL PET/CT day n, HBED-PSMA^CC PET/CT day n + 2
[4] = system: bone metastases; test: First therapeutic application / scintigraphy of [177Lu]DOTA^ZOL in a prostate carcinoma patient with disseminated bone metastases; format: in vivo
Protocol: FIG. 5: Distribution of [^177Lu]DOTA^ZOL in a patient with disseminated bone metastases: [^177Lu]DOTA^ZOL scintigraphy on a patient with prostate carcinoma 6 hours after injection. In a first therapeutic applications [sic], within two months, the PSA value (which represents an important marker in monitoring the progress of the prostate carcinoma) could be lowered from 478 ng/mL initially to 88 ng/mL after only one treatment with 5.5 GBq [^177Lu]DOTA^ZOL. ^177Lu-DOTAM^ZOL may be used equivalently.

Q: What does the source list for `O=C(O)CN1CCN(CC(=O)O)CCN(CC(=O)NCCC(P(=O)(O)O)P(=O)(O)O)CCN(CC(=O)O)CC1.[68Ga+3]` [[^68Ga]BPAPD]?
A: Bone-to-organ ratio Blood [1]: 3.73; Bone-to-organ ratio Heart [1]: 10.03; Bone-to-organ ratio Intestine [1]: 12.35; Bone-to-organ ratio Kidneys [1]: 5.73; Bone-to-organ ratio Liver [1]: 8.68; Bone-to-organ ratio Lung [1]: 7.47; Bone-to-organ ratio Muscle [1]: 18.88; Bone-to-organ ratio Spleen [1]: 13.96; SUV Blood [1]: 0.86 (0.21) SUV; SUV Femur [1]: 3.21 (0.29) SUV; SUV Heart [1]: 0.32 (0.09) SUV; SUV Intestine [1]: 0.26 (0.05) SUV; SUV Kidneys [1]: 0.56 (0.08) SUV; SUV Liver [1]: 0.37 (0.11) SUV; SUV Lung [1]: 0.43 (0.08) SUV; SUV Muscle [1]: 0.17 (0.02) SUV; SUV Spleen [1]: 0.23 (0.08) SUV; Elimination half-life t1/2(α) [2]: 5 min; Elimination half-life t1/2(β) [2]: 4 h

Q: For `O=C(O)CN1CCN(CC(=O)O)CCN(CC(=O)NCCC(O)(P(=O)(O)O)P(=O)(O)O)CCN(CC(=O)O)CC1.[68Ga+3]` [[^68Ga]DOTA^PAM], which “Bone-to-organ ratio Blood” value [1] is on record?
A: The value was 7.61.

Q: And the “Bone-to-organ ratio Heart” value [1]?
A: The value was 19.49.

Q: And the “Bone-to-organ ratio Intestine” value [1]?
A: The value was 16.11.

Q: And the “Bone-to-organ ratio Kidneys” value [1]?
A: The value was 9.44.

Q: What about the “Bone-to-organ ratio Liver” value [1] of the same molecule?
A: Its value is 10.02.

Q: And the “Bone-to-organ ratio Lung” value [1]?
A: The value was 8.61.

Q: What about the “Bone-to-organ ratio Muscle” value [1] of the same molecule?
A: The value was 47.96.

Q: What about the “Bone-to-organ ratio Spleen” value [1] of the same molecule?
A: Its value is 14.51.

Q: And the “SUV Blood” value [1]?
A: The value was 0.60 (0.03) SUV.

Q: And the “SUV Femur” value [1]?
A: Its value is 4.53 (0.17) SUV.

Q: What about the “SUV Heart” value [1] of the same molecule?
A: The value was 0.23 (0.02) SUV.

Q: And the “SUV Intestine” value [1]?
A: Its value is 0.28 (0.12) SUV.

Q: And the “SUV Kidneys” value [1]?
A: Its value is 0.48 (0.06) SUV.

Q: And the “SUV Liver” value [1]?
A: The value was 0.43 (0.04) SUV.

Q: What about the “SUV Lung” value [1] of the same molecule?
A: The value was 0.53 (0.16) SUV.

Q: And the “SUV Muscle” value [1]?
A: The value was 0.09 (0.02) SUV.

Q: And the “SUV Spleen” value [1]?
A: The value was 0.31 (0.04) SUV.

Q: And the “Elimination half-life t1/2(α)” value [2]?
A: Its value is 4.5 min.

Q: And the “Elimination half-life t1/2(β)” value [2]?
A: The value was 4.5 h.

Q: Which results are given for `O=C(O)CN1CCN(CC(=O)O)CCN(CC(=O)NCCc2cn(CC(O)(P(=O)(O)O)P(=O)(O)O)cn2)CCN(CC(=O)O)CC1.[68Ga+3]` [[^68Ga]DOTA^ZOL]?
A: Bone-to-organ ratio Blood [1]: 11.47; Bone-to-organ ratio Heart [1]: 37.97; Bone-to-organ ratio Intestine [1]: 38.67; Bone-to-organ ratio Kidneys [1]: 10.22; Bone-to-organ ratio Liver [1]: 19.21; Bone-to-organ ratio Lung [1]: 12.06; Bone-to-organ ratio Muscle [1]: 65.96; Bone-to-organ ratio Spleen [1]: 31.71; SUV Blood [1]: 0.47 (0.19)^† SUV; SUV Femur [1]: 5.40 (0.62)^†‡ SUV; SUV Heart [1]: 0.14 (0.04)^†‡ SUV; SUV Intestine [1]: 0.14 (0.08)^ SUV; SUV Kidneys [1]: 0.53 (0.04)^ SUV; SUV Liver [1]: 0.28 (0.03)^‡ SUV; SUV Lung [1]: 0.45 (0.11)^ SUV; SUV Muscle [1]: 0.08 (0.02)^† SUV; SUV Spleen [1]: 0.17 (0.02)^‡ SUV; SUV max, bone lesion 8th right rear rib [3]: 7.99 SUV max; SUV max, bone lesion C4 vertebral body and hip pedicle [3]: 12.38 SUV max; SUV max, bone lesion L2 vertebral body [3]: 68.92 SUV max; SUV max, bone lesion L3 vertebral body [3]: 62.96 SUV max; SUV max, bone lesion L4 vertebral body [3]: 34.51 SUV max; SUV max, bone lesion L5 vertebral body [3]: 21.94 SUV max; SUV max, bone lesion Left bones, upper ischium, and pubic bone [3]: 62.32 SUV max; SUV max, bone lesion Right acetabulum [3]: 25.39 SUV max; SUV max, bone lesion Right ischium [3]: 32.55 SUV max; SUV max, bone lesion Sacrum [3]: 17.98 SUV max; SUV max, bone lesion T9 vertebral body [3]: 17.08 SUV max; SUV max, bone lesion T11 vertebral body [3]: 32.29 SUV max; SUV max, soft tissue Bladder [3]: 15.53 SUV max; SUV max, soft tissue Left kidney [3]: 4.12 SUV max; SUV max, soft tissue Left parotid gland [3]: 1.46 SUV max; SUV max, soft tissue Liver [3]: 2.85 SUV max; SUV max, soft tissue Right kidney [3]: 9.34 SUV max; SUV max, soft tissue Right parotid gland [3]: 1.22 SUV max; SUV max, soft tissue Spleen [3]: 4.50 SUV max; Elimination half-life t1/2(α) [2]: 5 min; Elimination half-life t1/2(β) [2]: 2.3 h

Q: For `O=C(O)CN1CCN(CC(=O)O)CCN(CC(=O)NCCc2cn(CC(O)(P(=O)(O)O)P(=O)(O)O)cn2)CCN(CC(=O)O)CC1.[177Lu+3]` [[^177Lu]DOTA^ZOL], which Selectivity of distribution ([4]; first clinical studies, FIG. 5 scintigraphy 6 hours after injection) is on record?
A: Its Selectivity of distribution is “high selectivity”.

Q: What about the “PSA value after treatment” value ([4]; prostate carcinoma patient, within two months after only one treatment with 5.5 GBq, initially 478 ng/mL) of the same molecule?
A: The value was 88 ng/mL.
